Data as given in US20040116527A1, “Agents against stress-induced diseases” (AJINOMOTO CO., INC., priority 2001, published 2004).

How the values were obtained:
[1] = test system: mojyako (young yellow tail); assay: Feeding test under stress from feeding at high density in a water tank (Example 7); format: in vivo; conditions: for Total feed intake: 24 feeding days; for Daily feeding ratio (%) / Daily increment (%) / Feed efficiency (%) / Survival rate (%): 28 day test; for Survival rate (%): 40 fish per 800-L tank; for feed intake compared with the remaining experimental lots (involving higher body weight increment): over the 3 week to 4 week
Method: Test feeds were prepared by adding lysine hydrochloride salt at the ratio shown in Table 3 below to a commercially available mashed feed for mojyako. The lysine content in the dry feed is thereby at 4.8%, which is far above the dietetic requirement (1.78%). For comparison, further, a feed was prepared by adding arginine hydrochloride salt at the same level instead of lysine hydrochloride salt, for use at the test.
As test fish, each group of 40 mojyako fishes of mean fish body weight of about 35 g were placed in one 800-L water tank, to which the feeds were fed two times daily at 8:00 in the morning and 16:00 in the afternoon to satiation, for a total of 4 weeks. During the term, their body weights were measured weekly. Herein, feeding was not done at 16:00 in the afternoon on the day before the day for body weight measurement.

Wistar rats [2] = assay: Elevated T-maze test after water-immersion stress, oral aqueous solutions (Example 6); format: in vivo, rat
Method: Seven-week Wistar rats (male, Nippon Charles-River) were used. For 7 days, the normal diet (CRF-1; Oriental Yeast) was fed ad libitum to the rats, for preliminary feeding. For the stress experiment, the rats were divided into the following three groups for feeding for another 3 days under starvation conditions: 1) a group (N=14) fed with an aqueous glutamine solution (120 mg/mL); 2) a group (N=14) given with an aqueous lysine solution (120 mg/mL); and 3) a group (N=14) given with an aqueous mixture solution of lysine glutamate salt (120 mg/mL) and arginine (120 mg/mL). The aqueous solutions were given to the individual groups in such a manner that dosing of 5 mL of each solution was enforced with an oral probe, once daily at 9:00 in the morning. During the term, water was fed ad libitum. On day 4, the rats were placed in a stress gage (Natsume Seisakusho; KN-468) to immerse the rats in water (temperature of 22 to 25° C.) so as to soak their breast for 4 hours for stress loading. Thereafter, elevated T-maze (see Example 1) test was done, for counting the time duration for searching action.

rats = assay: Water-immersion restraint model of stress-induced gastric ulcer, diets (Example 3); format: in vivo, rat; conditions: 3-week feeding, 18 h starvation, water immersion 6 hours at 22 to 25 C
Method: Rats were fed with the low lysine diet and the lysine-added diet supplemented for lysine deficiency (see Table 1) for 3 weeks. After starvation for 18 hours, the rats were placed in a stress gage (Natsume Seisakusho; KN-468) to immerse the rats in water (temperature of 22 to 25° C.) so as to soak their breast for 6 hours. Thereafter, a stomach was resected, to calculate the area with gastric bleeding, to examine the degree of gastric bleeding with the NHI image software. […] A correlation between gastric bleeding and the incidence of gastric ulcer is observed in this model. Therefore, it can be concluded that adding lysine to diet can prevent stress-induced gastric ulcer occurring on the low lysine diet.

Wistar rats [3] = assay: Model with stress-induced appetite loss, foot shock stress (Example 4); format: in vivo, rat; conditions: lysine-added diet (27 g/kg) vs control diet (13.4 g/kg), fed from 4 days before foot shock stress
Method: Wistar rats (male; age 13 weeks; about 400 g or so; N=16) were used at this experiment. Four days before the start of the experiment and throughout the stress experiment, the rats were fed with normal diet (control diet; lysine at 13.4 g/kg) and the lysine-added diet (27 g/kg). Under conditions of water ad libitum, feeding was done from 9:00 to 11:00. The rats were subjected to foot shock stress (1 mA/3 minutes; once per one hour at 19:00 to 7:00 on the next day) on day 4 of feeding; foot shock stress (1 mA/3 minutes, once per 2 hours at 19:00 to 7:00 on the next day) on day 5; and foot shock stress (1 mA/3 minutes, once at 7:00) on day 6. The changes in the total feed intake each day and the change of body weight over days were measured.

Wistar rats [4] = assay: Stress-induced gastric ulcer experiment, oral aqueous solutions (Example 5); format: in vivo, rat; conditions: 5 mL orally once daily for 3 days, water immersion 5 hours on day 4; compared with control group fed pure water
Method: To assess the effects of lysine administration on stress-induced gastric ulcers, 7-week Wistar rats (male; Nippon Charles-River) were used. For 7 days, normal diet (CRF-1; Oriental Yeast) was fed ad libitum to the rats, for preliminary feeding. For the stress experiment, rats were divided into the following three groups for feeding for another 3 days under starvation conditions: I) a control group (N=8) fed with pure water; 2) a group (N=8) given with an aqueous lysine solution (40 mg/mL); and 3) a group (N=4) given with an aqueous mixture solution of lysine glutamate salt (40 mg/mL) and arginine (40 mg/mL). The aqueous solutions were given to the individual groups in such a manner that dosing of 5 mL of each solution was enforced with an oral probe, once daily at 9:00 in the morning.
During the term, water was fed ad libitum. On day 4, the rats were placed in a stress gage (Natsume Seisakusho; KN-468) as in Example 3, to immerse the rats in water (temperature of 22 to 25° C.) so as to soak their breast for 5 hours to induce stress-induced gastric ulcer.

[5] = test system: Broiler (species: Arbor Acres); assay: Broiler feeding at normal and high density under very hot conditions (Example 8); format: in vivo; conditions: loading of lysine alone, ratio of arginine/lysine in the feed lowered
From the text: Broiler (species: Arbor Acres) was fed under very hot conditions.
The feeding density was 8 chickens/1 m^2 (normal density) and 12 chickens/1 m^2 (high density) in two lots; the feeds were the following three groups: Feed 1=normal feed; Feed 2=normal feed+lysine (the lysine content 2-fold that in Feed 1); or Feed 3=normal feed+lysine+arginine (the lysine content and the arginine content were individually 2-fold those in Feed 1). A total of 6 experimental examples were set as combinations of the feeding densities and the feeds. The test was started on age 21 days (the mean body weight then was 722 g). The feeding results (body weight increment, feed requirement) on age 48 days were compared thereto. On the age 48 days, the chickens were sacrificed to death, for the evaluation of their meat quality (fat ratio in abdominal cavity). The feed requirement was expressed by the feed amount required for the increment of 1 g/body weight, as calculated by dividing the total feed intake by the body weight increment.

Compound | Total feed intake [1] | Daily feeding ratio (%) [1] | Daily increment (%) [1] | Feed efficiency (%) [1] | Survival rate (%) [1] | Mean body weight at start [1] | Weekly feed intake (g) for 0-1 week [1] | Weekly feed intake (g) for 1-2 week [1] | Weekly feed intake (g) for 2-3 week [1] | Weekly feed intake (g) for 3-4 week [1] | Mean body weight on 1 week [1] | Mean body weight on 2 week [1] | Mean body weight on 3 week [1] | Mean body weight on 4 week (final) [1] | feed intake compared with the remaining experimental lots (involving higher body weight increment) [1] | also measured
N=C(N)NCCC[C@H](N)C(=O)O [Arginine, L-Arginine, reference compound] | 3072 g | 4.09% | 3.36% | 82.0% | 100% | 35.5 | 18.7 g | 36.7 g | 54.5 g | 76.8 g | 45.7 | 61.5 | 77.6 | 98.5 | could not be obtained | –
NC(=O)CC[C@H](N)C(=O)O [glutamine, L-Glutamine, reference compound] | – | – | – | – | – | – | – | – | – | – | – | – | – | – | – | time duration for searching action, glutamine group vs physiological saline group (Wistar rats [2]; evaluation of the effect of glutamine): No significant difference
NCCCC[C@H](N)C(=O)O [Lysine, L-Lysine] | 3452 g | 4.29% | 3.68% | 85.8% | 100% | 34.8 | 18.4 g | 38.3 g | 59.9 g | 86.3 g | 46.4 | 63.7 | 84.2 | 108.9 | larger | degree in areas of gastric bleeding (ratio of the area of gastric bleeding to the total gastric area) (rats): can prevent; effect on total feed intake and body weight change under stress (Wistar rats [3]): preventive effect; areas of gastric bleeding (Wistar rats [4]): significant reduction; time duration for searching action (Wistar rats [2]; 5 mL orally once daily for 3 days, water immersion 4 hours on day 4, compared with the glutamine group): significantly prolonged; body weight increment compared with the control ([1]; at the termination of the test): 17%; growth inhibition [5]: no growth inhibition is observed
